# Assay results reported in patent US20050209104A1, “Dinoflagellate karlotoxins, methods of isolation and uses thereof” (priority 2002, published 2005).
# System: Candida albicans (ATCC 14053)
# Test: Anti-fungal broth microdilution assay (yeast)
# Format: cell-based
# Details: lowest dose with no growth after 96 hours, 28° C.
# Protocol: The following fungal strains were purchased from the American Type Culture Collection (Manassas, Va.), Aspergillus niger (ATCC 1004) as a representative filamentous fungi, and Candida albicans (ATCC 14053) as a representative yeast. Assays were performed according to the following National Committee for Clinical Laboratory Standards documents; M27-A2 Reference Method for Broth Dilution Antifungal Susceptibility Testing of Yeasts; Approved Standard—Second Edition([NCCLS, 2002), and M38-A Reference Method for Broth Dilution Antifungal Susceptibility Testing of Filamentous Fungi; Approved Standard (NCCLS, 2002). Procedures for the broth microdilution modification were followed for both species with the following exceptions; A. niger stocks were maintained on Potato Dextrose Agar at 25° C., while C. albicans was maintained on Yeast Malt Agar at 28° C., both according to ATCC recommendations. Amphotericin B was used as a positive control. Microdilution assays were performed in HyQ-RPMI-1640 media (HyClone, Logan, Utah.), with 2.05 mM L-glutamine, without sodium bicarbonate, pH 7.2 using dilutions of 1 mg/ml DMSO stocks of KmTx 2 and amphotericin B.
# The following concentrations were tested for both KmTx2 and amphotericin B: 0.0625, 0.125, 0.25, 0.5, 1, 2, 4, 8, and 16 μg/ml. A maximum of 1.6% DMSO was added to any given well. Plates were incubated at 25 and 28° C., respectively, for A. niger and C. albicans. […] Amphotericin B and all culture media were purchased from Sigma-Aldrich (St. Louis, Mo.).
compound,measurement,value
C=C(CC[C@H](O)[C@H]1O[C@H](C[C@@H](O)[C@H](O)[C@H](C)CCC[C@@H](O)[C@H](O)[C@H](O)[C@@H](C)CC[C@@H](O)[C@H](O)[C@H](C)C[C@@H](O)CCC[C@@H](O)CCC[C@@H](O)/C=C/C[C@@H](O)CO)[C@@H](O)[C@@H](O)[C@@H]1O)[C@H](O)[C@H](O)[C@@H]1C[C@H](O)[C@H](O)[C@@H]([C@H](O)[C@@H](O)/C=C/CCCCCCCC/C=C/C=C/Cl)O1 [KmTx 2],Minimal inhibitory concentration (MIC),16 µg/mL
